Reference: patent US6884772B1, “Depilatories and agents for external use” (Kao Corporation, priority 1999, dated 2005)
Where no end group is shown, it is not given here.

Assays:
[1] = system: dorsal part of a guinea pig; assay: Depilation inducing effects of endothelin (intracutaneous administration); assay type: in vivo; settings: 0.3 μg in 0.1% BSA/PBS, 50 μL/site, 10 days after the administration
Experimental: (§1) A solution of endothelin-1 (0.3 μg) in phosphate buffer solution (PBS), which contained 0.1% of bovine serum albumin (BSA), was intracutaneously administered (at 50 μL/site) to the dorsal part of a guinea pig.

[2] = system: dorsal parts of guinea pigs; assay: Growth-phase hair follicle inhibitory effects (number of hair shafts grown per unit area); assay type: in vivo, guinea pig; settings: 1 μg each, intracutaneous, 50 μL/site, fifth day after the administration (FIG. 1)
Experimental: Solutions (1 μg, each) of endothelin-1, endothelin-2 and endotherin-3 in aliquots of phosphate buffer solution (PBS), which contained 0.1% of bovine serum albumin (BSA), were intracutaneously administered (at 50 μL/site) to the dorsal parts of guinea pigs, respectively, from which hair had been cut off by a hair clipper. Three days after the administration, hair was again cut off by a hair clipper from the administered sites. Two days after the cutting, the numbers of hair shafts grown per unit area at the administered sites were counted.

[3] = system: growth-phase hair follicle; assay: Structural changes of hair follicle structure (hematoxylin-eosin staining of dorsal skin); assay type: in vivo, guinea pig; settings: 0.3 μg intracutaneous
Experimental: as §1, with “1.1%” for “0.1%”, “pig. After that, samples were collected day after day from the administered dorsal skin, and tissue samples were prepared by hematoxylin-eosin staining.” for “pig.”

[4] = system: hair follicle organs in growth phase from a human scalp tissue; assay: Growth inhibitory effects on organ-cultured hair follicles; assay type: cell-based
Experimental: From a human scalp tissue, hair follicle organs in growth phase were surgically isolated under a stereomicroscope. Following a conventional procedure [Philpott M.P., et al., J. Cell Sci., 97, 463-471 (1990), the isolated hair follicles were subjected to organ culture. Described specifically, endothelin-1 was added to William's E medium which contained L-glutamine (2mM), hydrocortisone (10ng/mL), insulin ([…]) sodium selenite (10 ng/mL) and transferrin (10 μg/mL).

| Molecule | Hair shaft falling-off and formation of depilation spot at the administered site [1] | Number of hair shafts grown per unit area at the administered sites [2] | Hair follicle histology ([3]; 1st day after the administration (FIG. 2)) | Hair follicle histology ([3]; 3rd day after the administration (FIG. 2)) | Percent regression of growth-phase hair follicles ([4]; 10 ng/mL, Day 1 of incubation) [%] | Percent regression of growth-phase hair follicles ([4]; 10 ng/mL, Day 2 of incubation) [%] | Percent regression of growth-phase hair follicles ([4]; 100 ng/mL, Day 1 of incubation) [%] | Percent regression of growth-phase hair follicles ([4]; 100 ng/mL, Day 2 of incubation) [%] | Grown hair follicle lengths (hair growth inhibition) ([4]; day 4 of incubation and the subsequent days, compared with control group without endothelin-1 (FIG. 3)) | Structural change of incubated growth-phase hair follicles ([4]; during the incubation period (FIG. 4)) |
| --- | --- | --- | --- | --- | --- | --- | --- | --- | --- | --- |
| CC[C@H](C)[C@H](NC(=O)[C@H](CC(=O)O)NC(=O)[C@H](CC(C)C)NC(=O)[C@H](Cc1c[nH]cn1)NC(=O)[C@@H]1CSSC[C@H](N)C(=O)N[C@@H](CO)C(=O)N[C@H]2CSSC[C@H](NC(=O)[C@H](CCC(=O)O)NC(=O)[C@H](CCCCN)NC(=O)[C@H](CC(=O)O)NC(=O)[C@H](CCSC)NC(=O)[C@H](CC(C)C)NC(=O)[C@H](CO)NC(=O)[C@H](CO)NC2=O)C(=O)N[C@@H](C(C)C)C(=O)N[C@@H](Cc2ccc(O)cc2)C(=O)N[C@@H](Cc2ccccc2)C(=O)N1)C(=O)N[C@H](C(=O)N[C@@H](Cc1c[nH]c2ccccc12)C(=O)O)[C@@H](C)CC [Endothelin-1, endothelin-1] | hair shaft falling-off and formation of a marked depilation spot were observed | significant (p<0.01) decrease in the number of hair shafts | regressed image of a growth-phase hair follicle was observed | image of a follicular tissue in transition phase was presented | 0.0 | 0.0 | 0.0 | 0.0 | significant hair growth inhibitory effects were observed | structural change of the endothelin-treated, growth-phase hair follicles into those similar to resting-phase hair follicles was observed |
| endothelin-2 (CSCSSWLDKECVYFCHLDIIW; ends and bridges not checked; cysteine pairing not given here; UniProt P20800 49-69, looked up) [peptide composed of 21 amino acid residues, isoform of endothelin] | – | significant (p<0.01) decrease in the number of hair shafts | – | – | – | – | – | – | – | – |
| endothelin-3 (CTCFTYKDKECVYYCHLDIIW; ends and bridges not checked; cysteine pairing not given here; UniProt P14138 97-117, looked up) [endotherin-3, peptide composed of 21 amino acid residues, isoform of endothelin] | – | significant (p<0.01) decrease in the number of hair shafts | – | – | – | – | – | – | – | – |
